From US12202805B2, “Process for preparing (5S)-{[2-(4-carboxyphenyl)ethyl] |2-(2-{|3-chloro-4'-(trifluoromethyl)biphenyl-4-yl]methoxy}phenyl)ethyl]aminol-5,6,7,8-tetrahydroquinoline-2-carboxylic acid and its crystalline forms for use as pharmaceutically active compound” (Bayer Aktiengesellschaft, priority 2021, dated 2025)

Legend:
Caco-2 permeability test = assay type: in vitro ADME, human; conditions: human, Caco-2, 2.4 μM
Protocol: E-3. Further Characterization E-3.1 Caco-2 Permeability Test
The in vitro permeation of a test compound across a Caco-2 cell monolayer is a well-established assay system to predict the permeability from the gastro-intestinal tract (1). The permeability of the compounds of the present invention in such Caco-2 cells was determined as described below:
Human caco-2 cells were seeded on 24-well insert plates and were allowed to grow for 14-16 days. For permeability studies, the test compounds were dissolved in DMSO and diluted to the final test concentration of 2 μM with transport buffer [Hanks' Buffered Salt Solution, Gibco/Invitrogen, further supplemented with glucose and HEPES]. For determination of the apical to basolateral permeability (PappA-B), the test compound solution was added to the apical side of the cell monolayer and transport buffer to the basolateral side of the monolayer; for determination of the basolateral to apical permeability (PappB-A), the test compound solution was added to the basolateral side of the cell monolayer and transport buffer to the apical side of the monolayer. Samples were taken from the donor compartment at the beginning of the experiment to confirm mass balance. After an incubation of 2 h at 37° C., samples were taken from both compartments. Samples were analyzed by LC-MS/MS, and the apparent permeability coefficients were calculated. Lucifer Yellow permeability was assayed for each cell monolayer to ensure cell monolayer integrity, and the permeability of Atenolol (low permeability marker) and Sulfasalazine (marker for active excretion) was determined for each batch as quality control.

[1] = test system: patients with severe pulmonary hypertension; conditions: cited from earlier work
[2] = test system: thromboxane A2 challenged PAH-minipig; assay: Haemodynamics in the anesthetized thromboxane challenged minipig, inhaled nebulized solution (PAP, BP); assay type: in vivo, Göttingen Minipigs; conditions: 10 μg/kg nominal dose inhaled, mean
Protocol: E-1 Haemodynamics in the Anesthetized Thromboxane Challenged Minipig
Lung Selectivity and Duration of Action
Healthy Göttingen Minipigs® Ellegaard (Ellegaard, Denmark) of both sexes and having a weight of 2-6 kg were used. The animals were sedated by i.m. administration of about 25 mg/kg ketamine and about 10 mg/kg azaperone. Anaesthesia was initiated by i.v. administration of about 2 mg/kg ketamine and about 0.3 mg/kg midazolam. Maintenance of anaesthesia was by i.v. administration of about 7.5-30 mg/kg/h ketamine and about 1-4 mg/kg/h midazolam (rate of infusion 1-4 ml/kg/h) and about 150 μg/kg/h pancuronium bromide (for example Pancuronium-Actavis). After intubation, the animals were ventilated by the ventilator at a constant respiratory volume (10-12 ml/kg, 35 breaths/min; Avea®, Viasys Healthcare, USA, or Engström Carestation, GE Healthcare, Freiburg, Germany) such that an end-tidal CO2 concentration of about 5% was achieved. Ventilation was performed with room air, enriched with about 40% oxygen (normoxia). For the measurement of the haemodynamic parameters such as pulmonary arterial pressure (PAP), blood pressure (BP) and heart rate (HR), catheters were inserted into the carotid artery to measure the blood pressure, and a Swan-Ganz® catheter was introduced in a flow-directed manner via the jugular vein into the pulmonary artery. The haemodynamic signals were recorded and evaluated by means of pressure transducers (Combitransducer, B. Braun, Melsungen, Germany)/amplifiers and Ponemah® as data acquisition software.
After the instruments have been placed into the animals, continuous infusion of a thromboxane A2 analog was initiated to increase the pulmonary arterial pressure. About 0.3-0.75 μg/kg/min of 9,11-didesoxy-9α,11α-epoxymethanoprostaglandine F2α (U-44069; Sigma, cat. no. D0400, or Cayman Chemical Company, cat. no. 16440), dissolved in physiological saline, were infused to achieve an increase of the mean pulmonary arterial pressure to values of over 25 mmHg. 30 minutes after the start of the infusion, a plateau was reached, and the experiment was started.
The test substances were administered as i.v. infusion or by inhalation. For the preparation of the solution for inhalation, the following procedure was adopted: For an animal having a weight of 4 kg, to prepare the stock solution (300 μg/kg), 1.2 mg of the test compound were weighed out and dissolved in a total volume of 3 ml (1% DMSO, 99% 0.2% strength citric acid solution, 1 n aqueous sodium hydroxide solution to adjust the pH to 8). The solution was then diluted to the concentration employed using 0.2% strength citric acid which had been adjusted to pH 8 beforehand with aqueous sodium hydroxide solution. In each test, 3 ml of the solution of test compound per 4 kg animal were nebulized in the inhalation arm of the respiratory circuit using the Aeroneb® Pro nebulizer system. The mean nebulization time was about 7 min from the start of the nebulization.
With respect to a prediction of the duration of action for human studies comparative example 11 was compared in the PAH minipig model after inhaled application to Ventavis® (=Iloprost, 10 μg/kg nominal dose), which we used as a clinical reference. […] Therefore, the duration of action is more than 6 times longer compared to Ventavis in this preclinical animal model.

[3] = test system: animal model of pulmonary hypertension; conditions: cited from earlier work

COC(=O)N(C)c1c(N)nc(-c2nn(Cc3ccccc3F)c3ncccc23)nc1N [Comparative example 2 (Riociguat)]
efflux ratio at 2 h, 2.4 μM (Caco-2 permeability test): 11 ± 3.3 | Papp A→B at 2 h, 2.4 μM (Caco-2 permeability test; 2 h at 37° C., read-out: Papp A − B (mean +/− SD)): 3.5 ± 0.84 ×10⁻⁶ cm/s | Papp B→A at 2 h, 2.4 μM (Caco-2 permeability test; 2 h at 37° C., read-out: Papp B − A (mean +/− SD)): 36.7 ± 7.5 ×10⁻⁶ cm/s

CCCCC[C@H](O)CC[C@@H]1[C@H]2Cc3cccc(OCC(=O)O)c3C[C@H]2C[C@H]1O [Treprostinil]
mean change in PVR from baseline ([1]; inhaled, single administration, historical comparison): approximately −30%

CC#CCC(C)[C@H](O)/C=C/[C@@H]1[C@H]2C/C(=C/CCCC(=O)O)C[C@H]2C[C@H]1O (stereo partly shown) [Ventavis ®]
PAP % changes vs prevalue ([2]; time 0 min): 0% | PAP % changes vs prevalue ([2]; time 10 min): −30.3% | PAP % changes vs prevalue ([2]; time 20 min): −20.7% | PAP % changes vs prevalue ([2]; time 30 min): −6.9% | PAP % changes vs prevalue ([2]; time 40 min): 1.7% | PAP % changes vs prevalue ([2]; time 50 min): 4.9%

CC#CCC(C)[C@H](O)/C=C/[C@@H]1[C@H]2C/C(=C/CCCC(=O)O)C[C@H]2C[C@H]1O (stereo partly shown) [Ventavis]
duration of action on haemodynamics (PVR) ([1]; clinical studies): about 60 min

O=C(O)CCCCN(CCc1ccccc1OCc1ccc(CCc2ccccc2)cc1)Cc1ccc(C(=O)O)cc1 [comparative example 1]
effect on pulmonary arterial pressure ([3]; inhalative administration in the form of microparticles): dose-dependent selective reduction of the pulmonary arterial pressure | duration of action ([3]; inhalative administration): did not have a sufficient duration of action
